Test results published in patent US9783499B2, “Quinoline derivatives and their applications” (Shenyang Pharmaceutical University, priority 2012, dated 2017).

Tests used:
[1] = test system: human tumor cell lines (such as human lung cancer cells, human gastric cancer cells, etc.); conditions: cited from earlier work
[2] = test system: MKN-45 (human gastric carcinoma cell); test: In vitro anti-tumor cellular activity (MTT), MKN-45; assay type: cell-based; conditions: 72 hours
Protocol: (§1) After pouring the cell dissociation buffer to the centrifugetube, nutrient solution was added to stop digestion. The centrifugetube were centrifuged for 10 min under 800 r/min, the liquid supernatant was removed, 5 mL culture solution was added, after mixing by pipetting the cell, took 10 μL cell suspension to the cell counting plat, and adjusted the cell concentration to 10^4/well. Among the 96 wells, A1 is empty, 100 μL of cell suspension were added to the other wells. The 96 well plates were incubated in the incubator for 24 h. […] The 96-well plates were placed in an incubator and cultivated for 72 hours. (3) The culture media containing the compounds in the 96-well plates was discarded, and the cells were washed with phosphate buffered solution (PBS) twice. Each well was added with 100 μL MTT (tetrazole) (0.5 mg/mL), and then placed in an incubator to incubate for 4 hours, after which MTT solution was discarded and 100 μL dimethyl sulfoxide was added thereto.

[3] = test system: MDA-MB-231 (human beast cancer cell); test: In vitro anti-tumor cellular activity (MTT), MDA-MB-231; assay type: cell-based; conditions: 72 hours
Protocol: as §1

[4] = test system: HT-29 (colon cancer cell); test: In vitro anti-tumor cellular activity (MTT), HT-29; assay type: cell-based; conditions: 72 hours
Protocol: as §1

[5] = test system: H460 (human lung cancer cell); test: In vitro anti-tumor cellular activity (MTT), H460; assay type: cell-based; conditions: 72 hours
Protocol: as §1

[6] = test system: SMMC-7721 (hepatoma cell); test: In vitro anti-tumor cellular activity (MTT), SMMC-7721; assay type: cell-based; conditions: 72 hours
Protocol: as §1

[7] = test system: U87MG (Human malignant glioblastoma cell); test: In vitro anti-tumor cellular activity (MTT), U87MG; assay type: cell-based; conditions: 72 hours
Protocol: as §1

Row | Molecule | IC50 against a variety of human tumor cell lines [1] | MKN-45 IC50 [2] [µg/mL] | MDA-MB-231 IC50 [3] [µg/mL] | HT-29 IC50 [4] [µg/mL] | H460 IC50 [5] [µg/mL] | SMMC-7721 IC50 [6] [µg/mL] | U87MG IC50 [7] [µg/mL]
1 | COc1cc2c(Oc3ccc(NC(=O)C4(C(=O)Nc5ccc(F)cc5)CC4)cc3F)ccnc2cc1OCCCN1CCOCC1 [Foretinib] | about 0.004 mg/mL |  |  |  |  |  | 
2 | (E)-N^1-phenyl-N^4-(3-fluoro-4-(6-methoxy-7-(3-(4-methylpiperidin-1-yl)propoxy)quinoline-4-yloxy)benzaldehyde)thiosemicarbazone [Example 63] |  | 0.73 | 0.14 | 0.50 | 0.33 | 0.64 | 1.0
